This note sets out measurements from US20210386068A1, “COMPOSITIONS COMPRISING PYRIDINE CARBOXYLATE HERBICIDES AND VERY LONG CHAIN FATTY ACID (VLCFA) SYNTHESIS INHIBITOR HERBICIDES” (priority 2018, published 2021).

Data set [1] has as its system Triticum aestivum (spring wheat, TRZAS). As to the kind of experiment: Greenhouse postemergence crop phytotoxicity, visual injury 20-22 d after spraying, spring wheat (TRZAS). It is filed as in vivo. From the text:
(§1) Seeds of the desired test plant species were planted in a 90:10% v/v (volume/volume) mixture of PRO-MIX® BX (Premier Tech Horticulture, Quakertown, Pa., USA) and PROFILE® GREENS GRADE™ (Profile Products LLC, Buffalo Grove, Ill., USA) planting mixture, which typically has a pH of 5.2 to 6.2 and an organic matter content of at least 50 percent, in plastic pots with a surface area of 103.2 square centimeters (cm^2). In some aspects, to ensure good germination and healthy plants, a fungicide treatment and/or other chemical or physical treatment was applied. The plants were grown for 7-36 days (d) in a greenhouse with an approximate 14-hour (h) photoperiod which was maintained at about 23° C. during the day and 22° C. during the night. Nutrients and water were added on a regular basis and supplemental lighting was provided with overhead metal halide 1000-Watt lamps as necessary. The plants were employed for testing when they reached the second or third true leaf stage.
(§2) Emulsifiable concentrates of each of each pyridine carboxylate herbicide (Compound A or Compound B) were prepared at 100 grams acid equivalent per liter (g ae/L). The emulsifiable concentrates also included a safener, cloquintocet-mexyl, at 120 grams active ingredient per liter (g ai/L). An aliquot of each emulsifiable concentrate was placed in a 25 mL glass vial and diluted with an aqueous mixture of 1.25% (v/v) ACTIROB® B esterified rapeseed oil (Bayer Crop Science, Research Triangle Park, N.C., USA) or MSO® Concentrate with LECI-TECH® methylated soybean oil (Loveland Products, Loveland, Colo., USA) to obtain concentrated stock solutions at the highest application rate for each herbicide, based upon a 12 milliliter (mL) application volume at a rate of 187 liters per hectare (L/ha). The concentrated stock solutions were further diluted with an aqueous mixture of 1.25% v/v ACTIROB® B or MSO® Concentrate with LECI-TECH® to obtain stock solutions at reduced application rates for each herbicide. Spray solutions of the herbicide combinations (Compound A or Compound B plus VLCFA synthesis inhibitor herbicide) were prepared by adding weighed amounts or aliquots of the VLCFA synthesis inhibitor herbicide to the stock solutions of Compound A or Compound B to form 12-mL spray solutions in two-way combinations.
(§3) The spray solutions were applied to the plant material with an overhead Mandel track sprayer equipped with 8002E nozzles calibrated to deliver 187 L/ha over an application area of 0.503 square meters (m^2) at a spray height of 18 inches ([…] (cm)) above the average plant canopy. Control plants were sprayed in the same manner with the solvent blank. All pyridine carboxylate herbicide (component a) application rates are given as “g ae/ha” and all VLCFA synthesis inhibitor herbicide (component b) application rates are given as “g ai/ha.”
(§4) The treated plants and control plants were placed in a greenhouse as described above and watered by sub-irrigation to prevent wash-off of the test compounds. After 20-22 d, the condition of the test plants as compared with that of the control plants was determined visually and scored on a scale of 0 to 100 percent where 0 corresponds to no injury and 100 corresponds to complete kill.

For data set [2], the system named is Matricaria inodora (scentless chamomile, MATIN). As to the kind of experiment: Greenhouse postemergence herbicidal effect, visual injury 20-22 d after spraying, scentless chamomile (MATIN). Type of data set: in vivo. The settings on record: Anilofos or Pretilachlor 300 g/ha.
Excerpt: as §1, §2, §3, §4

Data set [3] has as its system Papaver rhoeas (common poppy, PAPRH). As to the kind of experiment: Greenhouse postemergence herbicidal effect, visual injury 20-22 d after spraying, common poppy (PAPRH). It is filed as in vivo. Conditions: Anilofos or Pretilachlor 300 g/ha.
Excerpt: as §1, §2, §3, §4

Data set [4] relates to Sinapis arvensis (wild mustard, SINAR). As to the kind of experiment: Greenhouse postemergence herbicidal effect, visual injury 20-22 d after spraying, wild mustard (SINAR). It is filed as in vivo.
Excerpt: as §1, §2, §3, §4

The subject of data set [5] is Veronica hederifolia (ivy-leaved speedwell, VERHE). As to the kind of experiment: Greenhouse postemergence herbicidal effect, visual injury 20-22 d after spraying, ivy-leaved speedwell (VERHE). It is filed as in vivo. The settings on record: Anilofos or Pretilachlor 300 g/ha.
Excerpt: as §1, §2, §3, §4

Data set [6] relates to Kochia scoparia (kochia, KCHSC). As to the kind of experiment: Greenhouse postemergence herbicidal effect, visual injury 20-22 d after spraying, kochia (KCHSC). It is filed as in vivo.
Excerpt: as §1, §2, §3, §4

In data set [7] the test system is Veronica persica (Persian speedwell, VERPE). As to the kind of experiment: Greenhouse postemergence herbicidal effect, visual injury 20-22 d after spraying, Persian speedwell (VERPE). It is filed as in vivo. Conditions: Anilofos or Pretilachlor 300 g/ha.
Excerpt: as §1, §2, §3, §4

Data set [8] deals with winter wheat (TRZAW). As to the kind of experiment: Greenhouse postemergence crop phytotoxicity, visual injury 20-22 d after spraying, winter wheat (TRZAW). The settings on record: Anilofos or Pretilachlor 300 g/ha. Type of data set: in vivo, Triticum aestivum.
Excerpt: as §1, §2, §3, §4

Data set [9] has as its system winter barley (HORVW). As to the kind of experiment: Greenhouse postemergence crop phytotoxicity, visual injury 20-22 d after spraying, winter barley (HORVW). It is filed as in vivo, Hordeum vulgare. The settings on record: Anilofos or Pretilachlor 300 g/ha.
Excerpt: as §1, §2, §3, §4

Data set [10] relates to Hordeum vulgare (spring barley, HORVS). As to the kind of experiment: Greenhouse postemergence crop phytotoxicity, visual injury 20-22 d after spraying, spring barley (HORVS). It is filed as in vivo.
Excerpt: as §1, §2, §3, §4

Data set [11] concerns Matricaria chamomilla (wild chamomile, MATCH). As to the kind of experiment: Greenhouse postemergence herbicidal effect, visual injury 20-22 d after spraying, wild chamomile (MATCH). It is filed as in vivo.
Excerpt: as §1, §2, §3, §4

In data set [12] the test system is Polygonum convolvulus (wild buckwheat, POLCO). As to the kind of experiment: Greenhouse postemergence herbicidal effect, visual injury 20-22 d after spraying, wild buckwheat (POLCO). It is filed as in vivo.
Excerpt: as §1, §2, §3, §4

Data set [13] has as its system Lamium purpureum (purple deadnettle, LAMPU). As to the kind of experiment: Greenhouse postemergence herbicidal effect, visual injury 20-22 d after spraying, purple deadnettle (LAMPU). Type of data set: in vivo. The settings on record: Anilofos or Pretilachlor 300 g/ha.
Excerpt: as §1, §2, §3, §4

Data set [14] relates to Viola tricolor (wild pansy, VIOTR). As to the kind of experiment: Greenhouse postemergence herbicidal effect, visual injury 20-22 d after spraying, wild pansy (VIOTR). Type of data set: in vivo. Conditions: Anilofos or Pretilachlor 300 g/ha.
Excerpt: as §1, §2, §3, §4

The subject of data set [15] is Cirsium arvense (Canadian thistle, CIRAR). As to the kind of experiment: Greenhouse postemergence herbicidal effect, visual injury 20-22 d after spraying, Canadian thistle (CIRAR). It is filed as in vivo. The settings on record: Anilofos or Pretilachlor 300 g/ha.
Excerpt: as §1, §2, §3, §4

Data set [16] has as its system Matricaria discoidea (pineapple weed, MATMT). As to the kind of experiment: Greenhouse postemergence herbicidal effect, visual injury 20-22 d after spraying, pineapple weed (MATMT). It is filed as in vivo. The settings on record: Anilofos or Pretilachlor 300 g/ha.
Excerpt: as §1, §2, §3, §4

The test system of data set [17] is Salsola kali (Russian thistle, SASKR). As to the kind of experiment: Greenhouse postemergence herbicidal effect, visual injury 20-22 d after spraying, Russian thistle (SASKR). Type of data set: in vivo.
Excerpt: as §1, §2, §3, §4

Data set [18] has as its system Stellaria media (common chickweed, STEME). As to the kind of experiment: Greenhouse postemergence herbicidal effect, visual injury 20-22 d after spraying, common chickweed (STEME). It is filed as in vivo. The settings on record: Anilofos or Pretilachlor 300 g/ha.
Excerpt: as §1, §2, §3, §4

The test system of data set [19] is Cyanus segetum (cornflower, CENCY). As to the kind of experiment: Greenhouse postemergence herbicidal effect, visual injury 20-22 d after spraying, cornflower (CENCY). It is filed as in vivo. Conditions: Anilofos or Pretilachlor 300 g/ha.
Excerpt: as §1, §2, §3, §4

For data set [20], the system named is Capsella bursa-pastoris (shepherd's purse, CAPBP). As to the kind of experiment: Greenhouse postemergence herbicidal effect, visual injury 20-22 d after spraying, shepherd's purse (CAPBP). Type of data set: in vivo. Conditions: Anilofos or Pretilachlor 300 g/ha.
Excerpt: as §1, §2, §3, §4

The test system of data set [21] is Viola arvensis (field pansy, VIOAR). As to the kind of experiment: Greenhouse postemergence herbicidal effect, visual injury 20-22 d after spraying, field pansy (VIOAR). It is filed as in vivo. The settings on record: Anilofos or Pretilachlor 300 g/ha.
Excerpt: as §1, §2, §3, §4

In data set [22] the test system is Brassica napus (winter rape, BRSNW). As to the kind of experiment: Greenhouse postemergence herbicidal effect, visual injury 20-22 d after spraying, winter rape (BRSNW). Type of data set: in vivo. Conditions: Anilofos or Pretilachlor 300 g/ha.
Excerpt: as §1, §2, §3, §4

Data set [23] concerns Anthemis arvensis (corn chamomile, ANTAR). As to the kind of experiment: Greenhouse postemergence herbicidal effect, visual injury 20-22 d after spraying, corn chamomile (ANTAR). It is filed as in vivo. The settings on record: Anilofos or Pretilachlor 300 g/ha.
Excerpt: as §1, §2, §3, §4

Data set [24] has as its system Brassica napus (spring rape, BRSNN). As to the kind of experiment: Greenhouse postemergence herbicidal effect, visual injury 20-22 d after spraying, spring rape (BRSNN). It is filed as in vivo. Conditions: Cafenstrole 52.5 g/ha alone.
Excerpt: as §1, §2, §3, §4

For data set [25], the system named is Chenopodium album L. (common lambsquarters, CHEAL). As to the kind of experiment: Greenhouse postemergence herbicidal effect, visual injury 20-22 d after spraying, common lambsquarters (CHEAL). Type of data set: in vivo. Conditions: Cafenstrole 52.5 g/ha alone.
Excerpt: as §1, §2, §3, §4

The mark [26] stands for this setting: Anilofos or Pretilachlor 300 g/ha.

Molecules are shown by their SMILES.

For the molecule `COP(=S)(OC)SCC(=O)N(c1ccc(Cl)cc1)C(C)C` [Anilofos, S-[2-[(4-chlorophenyl)(1-methylethyl)amino]-2-oxoethyl] O,O-dimethyl phosphorodithioate], in data set [1] (setting [26]), the “% visual injury TRZAS Obs” value turned out to be 0%. Besides, the “% visual injury MATIN Obs” value in data set [2] worked out at 0%. In data set [3], the “% visual injury PAPRH Obs” value stood at 25%. In addition, in [4] (setting [26]), the “% visual injury SINAR Obs” value turned out to be 0%. In addition, in [5], the “% visual injury VERHE Obs” value is 0%. For the same molecule, the “% visual injury KCHSC Obs” value in [6] (setting [26]) was 0%. Also, the “% visual injury VERPE Obs” value in [7] is given as 5%. Moreover, the “% visual injury TRZAW Obs” value in data set [8] was 0%. For the same molecule, the “% visual injury HORVW Obs” value in [9] was determined as 0%. Moreover, the “% visual injury HORVS Obs” value in data set [10] (setting [26]) amounted to 0%. The “% visual injury MATCH Obs” value in data set [11] (setting [26]) is 0%. Besides, the “% visual injury POLCO Obs” value in data set [12] (setting [26]) worked out at 0%. In addition, the “% visual injury LAMPU Obs” value in [13] is 10%. Also, the “% visual injury VIOTR Obs” value in data set [14] is reported as 0%. Also, the “% visual injury CIRAR Obs” value in data set [15] is reported as 0%. In [16], the “% visual injury MATMT Obs” value worked out at 0%. In addition, the “% visual injury SASKR Obs” value in data set [17] (setting [26]) is given as 0%. Further, the “% visual injury STEME Obs” value in data set [18] stood at 0%. Further, the “% visual injury CENCY Obs” value in data set [19] was found to be 10%. Besides, in data set [20], the “% visual injury CAPBP Obs” value was found to be 0%. For the same molecule, the “% visual injury VIOAR Obs” value in [21] was determined as 0%. The “% visual injury BRSNW Obs” value in [22] turned out to be 5%. Further, the “% visual injury ANTAR Obs” value in data set [23] is reported as 5%.
Consider `CCN(CC)C(=O)n1cnc(S(=O)(=O)c2c(C)cc(C)cc2C)n1` [Cafenstrole, N,N-diethyl-3-[(2,4,6-trimethylphenyl)sulfonyl]-1H-1,2,4-triazole-1-carboxamide], for which the “% visual injury Obs” value was determined as 0% in data set [1] (TRZAS, Cafenstrole 52.5 g/ha alone); 0% in data set [4] (SINAR, Cafenstrole 52.5 g/ha alone); 5% in [6] (KCHSC, Cafenstrole 52.5 g/ha alone); 0% in data set [10] (HORVS, Cafenstrole 52.5 g/ha alone); 5% in data set [11] (MATCH, Cafenstrole 52.5 g/ha alone); 5% in data set [12] (POLCO, Cafenstrole 52.5 g/ha alone). Besides, the “% visual injury Obs” value in [24] stood at 5%; in data set [17] (SASKR, Cafenstrole 52.5 g/ha alone) it was 0%; in [25], 0%.
